# Experimental data as given in PubChem BioAssay (NCI).
#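 Test compounds were applied to cells in 96-well plates for 48 hours at 5 doses. Here, GI50 denotes the concentration required for 50% inhibition of growth. The concentration for full growth arrest is given as TGI.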
# Tests used:
# Assay in all cases: NCI-60 cell line screen, 48 h
# [1] = test system: HCT-116 colon
# [2] = test system: NCI-H23 lung
# [3] = test system: HOP-18 NSCLC
# [4] = test system: SK-MEL-28 melanoma
# [5] = test system: KM20L2 colon
# [6] = test system: HT29 colon
# [7] = test system: SF-539 CNS
# [8] = test system: CAKI-1 renal
# [9] = test system: OVCAR-8 ovarian
# [10] = test system: M19-MEL melanoma
# [11] = test system: SN12C renal
# [12] = test system: COLO 205 colon
# [13] = test system: SK-MEL-2 melanoma
# [14] = test system: RPMI-8226 leukemia
# [15] = test system: XF 498 CNS
# [16] = test system: KM12 colon
# [17] = test system: ACHN renal
# [18] = test system: SNB-75 CNS
# [19] = test system: 786-0 renal
# [20] = test system: K-562 leukemia
# [21] = test system: EKVX NSCLC
# [22] = test system: MOLT-4 leukemia
# [23] = test system: UACC-62 melanoma
# [24] = test system: DLD-1 colon
# [25] = test system: NCI-H460 lung
# [26] = test system: RXF 393 renal
# [27] = test system: SK-OV-3 ovarian
# [28] = test system: TK-10 renal
# [29] = test system: OVCAR-3 ovarian
# [30] = test system: OVCAR-5 ovarian
# [31] = test system: UACC-257 melanoma
# [32] = test system: SF-295 CNS
# [33] = test system: LXFL 529 NSCLC
# [34] = test system: M14 melanoma
# [35] = test system: SK-MEL-5 melanoma
# [36] = test system: SNB-78 CNS
# [37] = test system: UO-31 renal
# [38] = test system: NCI-H226 lung
# [39] = test system: U251 CNS
# [40] = test system: HCT-15 colon
# [41] = test system: DMS 273 small cell lung
# [42] = test system: OVCAR-4 ovarian
# [43] = test system: IGROV1 ovarian
# [44] = test system: A549 NSCLC
# [45] = test system: SW-620 colon
# [46] = test system: SNB-19 CNS
# [47] = test system: MALME-3M melanoma
# [48] = test system: SR leukemia
# [49] = test system: A498 renal
# [50] = test system: HL-60(TB) leukemia
# [51] = test system: SF-268 CNS
# [52] = test system: HOP-62 NSCLC
# [53] = test system: HOP-92 NSCLC
# [54] = test system: HCC-2998 colon
# [55] = test system: NCI-H522 lung
# [56] = test system: CCRF-CEM leukemia
# [57] = test system: LOX IMVI melanoma
smiles,measurement,setting,value
C[N+](C)(C)CC1CCCC(C[N+](C)(C)C)C1=NO (stereo unspecified),TGI,[1],> 100 µM
same,TGI,[2],> 100 µM
same,TGI,[3],> 100 µM
same,TGI,[4],> 100 µM
same,TGI,[5],> 100 µM
same,TGI,[6],> 100 µM
same,TGI,[7],> 100 µM
same,TGI,[8],> 100 µM
same,TGI,[9],> 100 µM
same,TGI,[10],> 100 µM
same,TGI,[11],> 100 µM
same,TGI,[12],> 100 µM
same,TGI,[13],> 100 µM
same,TGI,[14],> 100 µM
same,TGI,[15],> 100 µM
same,TGI,[16],> 100 µM
same,TGI,[17],> 100 µM
same,TGI,[18],> 100 µM
same,TGI,[19],> 100 µM
same,TGI,[20],> 100 µM
same,TGI,[21],> 100 µM
same,TGI,[22],> 100 µM
same,TGI,[23],> 100 µM
same,TGI,[24],> 100 µM
same,TGI,[25],> 100 µM
same,TGI,[26],> 100 µM
same,TGI,[27],> 100 µM
same,TGI,[28],> 100 µM
same,TGI,[29],> 100 µM
same,TGI,[30],> 100 µM
same,TGI,[31],> 100 µM
same,TGI,[32],> 100 µM
same,TGI,[33],> 100 µM
same,TGI,[34],> 100 µM
same,TGI,[35],> 100 µM
same,TGI,[36],> 100 µM
same,TGI,[37],> 100 µM
same,TGI,[38],> 100 µM
same,TGI,[39],> 100 µM
same,TGI,[40],> 100 µM
same,TGI,[41],> 100 µM
same,TGI,[42],> 100 µM
same,TGI,[43],> 100 µM
same,TGI,[44],> 100 µM
same,TGI,[45],> 100 µM
same,TGI,[46],> 100 µM
same,TGI,[47],> 100 µM
same,TGI,[48],> 100 µM
N[C@@H]1CCCC[C@@H]1N.O=P([O-])([O-])CNCP(=O)([O-])[O-].[Pt+2],GI50,[1],> 100 µM
same,TGI,[1],> 100 µM
same,GI50,[2],> 100 µM
same,TGI,[2],> 100 µM
same,GI50,[3],> 100 µM
same,TGI,[3],> 100 µM
same,GI50,[4],> 100 µM
same,TGI,[4],> 100 µM
same,GI50,[5],> 100 µM
same,TGI,[5],> 100 µM
same,GI50,[6],> 100 µM
same,TGI,[6],> 100 µM
same,GI50,[7],> 100 µM
same,TGI,[7],> 100 µM
same,GI50,[8],> 100 µM
same,TGI,[8],> 100 µM
same,GI50,[49],> 100 µM
same,TGI,[49],> 100 µM
same,GI50,[9],> 100 µM
same,TGI,[9],> 100 µM
same,GI50,[10],> 100 µM
same,TGI,[10],> 100 µM
same,GI50,[50],> 100 µM
same,TGI,[50],> 100 µM
same,GI50,[11],> 100 µM
same,TGI,[11],> 100 µM
same,GI50,[51],> 100 µM
same,TGI,[51],> 100 µM
same,GI50,[12],> 100 µM
same,TGI,[12],> 100 µM
same,GI50,[13],> 100 µM
same,TGI,[13],> 100 µM
same,GI50,[14],> 100 µM
same,TGI,[14],> 100 µM
same,GI50,[15],> 100 µM
same,TGI,[15],> 100 µM
same,GI50,[16],> 100 µM
same,TGI,[16],> 100 µM
same,GI50,[17],> 100 µM
same,TGI,[17],> 100 µM
same,GI50,[18],> 100 µM
same,TGI,[18],> 100 µM
same,GI50,[19],> 100 µM
same,TGI,[19],> 100 µM
same,GI50,[52],> 100 µM
same,TGI,[52],> 100 µM
same,GI50,[20],> 100 µM
same,TGI,[20],> 100 µM
same,GI50,[22],> 100 µM
same,TGI,[22],> 100 µM
same,GI50,[23],> 100 µM
same,TGI,[23],> 100 µM
same,GI50,[53],> 100 µM
same,TGI,[53],> 100 µM
same,GI50,[54],> 100 µM
same,TGI,[54],> 100 µM
same,GI50,[24],> 100 µM
same,TGI,[24],> 100 µM
same,GI50,[25],> 100 µM
same,TGI,[25],> 100 µM
same,GI50,[55],> 100 µM
same,TGI,[55],> 100 µM
same,GI50,[26],> 100 µM
same,TGI,[26],> 100 µM
same,GI50,[27],> 100 µM
same,TGI,[27],> 100 µM
same,GI50,[28],> 100 µM
same,TGI,[28],> 100 µM
same,GI50,[29],> 100 µM
same,TGI,[29],> 100 µM
same,GI50,[31],> 100 µM
same,TGI,[31],> 100 µM
same,GI50,[56],> 100 µM
same,TGI,[56],> 100 µM
same,GI50,[32],> 100 µM
same,TGI,[32],> 100 µM
same,GI50,[33],> 100 µM
same,TGI,[33],> 100 µM
same,GI50,[34],> 100 µM
same,TGI,[34],> 100 µM
same,GI50,[35],> 100 µM
same,TGI,[35],> 100 µM
same,GI50,[36],> 100 µM
same,TGI,[36],> 100 µM
same,GI50,[37],> 100 µM
same,TGI,[37],> 100 µM
same,GI50,[38],> 100 µM
same,TGI,[38],> 100 µM
same,GI50,[39],> 100 µM
same,TGI,[39],> 100 µM
same,GI50,[40],> 100 µM
same,TGI,[40],> 100 µM
same,GI50,[41],> 100 µM
same,TGI,[41],> 100 µM
same,GI50,[42],> 100 µM
same,TGI,[42],> 100 µM
same,GI50,[43],> 100 µM
same,TGI,[43],> 100 µM
same,GI50,[44],> 100 µM
same,TGI,[44],> 100 µM
same,GI50,[57],> 100 µM
same,TGI,[57],> 100 µM
same,GI50,[45],> 100 µM
same,TGI,[45],> 100 µM
same,GI50,[46],> 100 µM
same,TGI,[46],> 100 µM
same,GI50,[47],> 100 µM
same,TGI,[47],> 100 µM
